Results from US12606554B2, “Compounds and pharmaceutical compositions thereof for the treatment of diseases” (ONCO3R Therapeutics BV, priority 2019, dated 2026).

How the values were obtained:
SIK3 = molecular target: T1, SIK3 (Homo sapiens, UniProt Q9Y2K2); assay: ADP-Glo kinase assay, SIK3; assay type: biochemical; conditions: AMARA peptide 45 μM, 5 μM ATP, 120 min
T1 construct: purchased SignalChem S12-11G-100
Description: (§1) The ADP-Glo™ kinase assay is a luminescent technology assay which measures the ADP formed from a kinase reaction. In this specific study, the kinase reactions consisted of the phosphorylation of the AMARA peptide substrate (SignalChem, Cat #A11-58) by SIK1 (Carma Biosciences, Cat #02-131), SIK2 (ThermoFisher Scientific, Cat #PV4792) or SIK3 (SignalChem, Cat #S12-11G-100). In a second step the kinase reactions are terminated and all the remaining ATP is depleted. In a final step the ADP is converted into ATP and this newly synthesized ATP is measured by using a luciferase/luciferin reaction. The generated light is measured using an Envision plate reader, wherein the luminescent signal obtained positively correlates with the kinase activity.
(§2) The test compounds are prepared as a serial dilution of 10 point dose responses with ⅕ dilution steps in 100% DMSO starting from 2 mM highest concentration, diluted 1/20 in water and […] is transferred to the assay plates (PerkinElmer Inc., Cat #6007290).
(§3) 1% DMSO and 10 μM staurosporine final concentrations are used as negative and positive controls.
(§4) 2 μL enzyme-substrate mixture is added to the assay plates.
(§5) The reaction is started by adding 2 μL diluted ATP on the assay plates. Plates are centrifuged for a few seconds at 1000 rpm and gently shaken for 2 min followed by an incubation at RT for 120 min.
(§6) The reactions are stopped and the unconsumed ATP is depleted by adding 5 μL ADP-Glo Reagent (Promega, Cat #V9121B) to the reaction. The plates are centrifuged for a few seconds at 1000 rpm and incubated at RT for […] (ATP depletion).
(§7) The ADP is converted to ATP and luciferase and luciferin is introduced to detect ATP by adding 10 μL Kinase Detection Reagent (Promega, Cat #V913B+V914r) to the reaction. The plates are centrifuged for a few seconds at 1000 rpm and incubated at RT for 30 min (ADP detection).
(§8) Luminescence is measured on an Envision plate reader (PerkinElmer Inc.).
(§9) Raw data are generated following the read-out performed on the TopCount, plotted to generate dose response curves to calculate percentage inhibition (PIN) and average IC50 for each SIK homologue which are reported in the table below.

SIK2 = molecular target: T2, SIK2 (Homo sapiens, UniProt Q9H0K1); assay: ADP-Glo kinase assay, SIK2; assay type: biochemical; conditions: AMARA peptide 45 μM, 5 μM ATP, 120 min
T2 construct: purchased ThermoFisher Scientific PV4792
Description: as §1, §2, §3, §4, §5, §6, §7, §8, §9

SIK1 = molecular target: T3, SIK1 (Homo sapiens, UniProt P57059); assay: ADP-Glo kinase assay, SIK1; assay type: biochemical; conditions: AMARA peptide 45 μM, 5 μM ATP, 120 min, read-out: SIM1 IC50
T3 construct: purchased Carna Biosciences 02-131
Description: as §1, §2, §3, §4, §5, §6, §7, §8, §9

[1] = tested on: LPS-induced TNFα in monocytes; assay: Monocytes assay: LPS-triggered TNFα (ELISA); assay type: cell-based; conditions: Homo sapiens, Monocyte, LPS 200 ng/mL, supernatant after 4 h
Procedure: SIK inhibition inhibits TNFα and increases IL-10 release in LPS triggered monocyte-derived macrophages (MdM) and dendritic cells (MdDCs) (Clark et al. 2012; Sundberg et al. 2014; Ozanne et al. 2015). This assay evaluates illustrative compounds of the invention for their inhibition of LPS-induced TNFα and LPS triggered IL-10 secretion in monocytes.
PBMCs are isolated from human blood samples (buffycoats). The buffy coat is aseptically transferred into a 50 mL Falcon tube, and diluted ½ in PBS. Falcon tubes are filled with 20 mL Lymphoprep™, on top of which 25 mL of the buffy coat is carefully added, tubes are centrifuged for 35 min at 400 g in temperature controlled centrifuge, without brake, at 25° C. PBMCs are aspirated from the white interface layer between sample and Lymphoprep™. PBMCs are washed five times in PBS. Cells are resuspended in RPMI 1640 complete medium supplemented with 10% FBS, 1% P/S, and cell density is determined using a hematologic analyzer (Sysmex XS-500i).
PBMCs are centrifuged at 300×g for 10 min and resuspended at a density of 1.0*10^7 cells/80 μL Miltenyi buffer (PBS, pH 7.4, 1% FBS, 2 mM EDTA).
Starting from this point of the protocol all steps are performed on ice. 20 μL of CD14+ micro-beads are added per 1.0*10^7 cells, the tube is mixed and incubated for 15 min in the fridge at 4° C. Cell suspension volume is adjusted to total volume of 100 mL using Miltenyi buffer, mixed gently and subsequently centrifuged for 10 min at 300×g. Supernatant is discarded and cell pellet is resuspended in 12 mL of Miltenyi buffer.
Four LS columns are placed in the MACS Separator (magnet) from Miltenyi Biotec, and are prewet by rinsing with 3 mL of MACS buffer per column. Three mL of cell suspension is added onto the column (max 1*10^8 of labelled cells/column), and columns are subsequently washed 3 times with 3 mL of Miltenyi buffer.
The columns are removed from the magnets, and 5 mL of Miltenyi buffer are added to the column to flush out the CD14+ fraction by pushing the plunger into the column. The flushed fractions are collected in a fresh 50 mL Falcon and volume is adjusted to 30 mL using Miltenyi buffer, cells are centrifuged for 10 min at 300×g. The obtained cell pellet is resuspended in 10 mL RPMI w/o FBS, and cell density is determined using a hematologic analyser (Sysmex XS-500i). 100 000 cells are seeded in 80 μL per well of a 96-well plate in RPMI 1640 medium supplemented with 10% FBS, 1% P/S.
A compound dilution plate is made in 100% DMSO by 3-fold dilution of 10 mM stock solution. An intermediate dilution plate (10× final concentration) is made by diluting the compound dilution plate 50-fold in RPMI medium.
10 μL of the 10× final concentration compound is added to the cells and incubated for 1 h at 37° C. before addition of trigger. […]

[2] = mice; Wein et al. 2016; cited from earlier work

T2 sequence (Q9H0K1 whole entry): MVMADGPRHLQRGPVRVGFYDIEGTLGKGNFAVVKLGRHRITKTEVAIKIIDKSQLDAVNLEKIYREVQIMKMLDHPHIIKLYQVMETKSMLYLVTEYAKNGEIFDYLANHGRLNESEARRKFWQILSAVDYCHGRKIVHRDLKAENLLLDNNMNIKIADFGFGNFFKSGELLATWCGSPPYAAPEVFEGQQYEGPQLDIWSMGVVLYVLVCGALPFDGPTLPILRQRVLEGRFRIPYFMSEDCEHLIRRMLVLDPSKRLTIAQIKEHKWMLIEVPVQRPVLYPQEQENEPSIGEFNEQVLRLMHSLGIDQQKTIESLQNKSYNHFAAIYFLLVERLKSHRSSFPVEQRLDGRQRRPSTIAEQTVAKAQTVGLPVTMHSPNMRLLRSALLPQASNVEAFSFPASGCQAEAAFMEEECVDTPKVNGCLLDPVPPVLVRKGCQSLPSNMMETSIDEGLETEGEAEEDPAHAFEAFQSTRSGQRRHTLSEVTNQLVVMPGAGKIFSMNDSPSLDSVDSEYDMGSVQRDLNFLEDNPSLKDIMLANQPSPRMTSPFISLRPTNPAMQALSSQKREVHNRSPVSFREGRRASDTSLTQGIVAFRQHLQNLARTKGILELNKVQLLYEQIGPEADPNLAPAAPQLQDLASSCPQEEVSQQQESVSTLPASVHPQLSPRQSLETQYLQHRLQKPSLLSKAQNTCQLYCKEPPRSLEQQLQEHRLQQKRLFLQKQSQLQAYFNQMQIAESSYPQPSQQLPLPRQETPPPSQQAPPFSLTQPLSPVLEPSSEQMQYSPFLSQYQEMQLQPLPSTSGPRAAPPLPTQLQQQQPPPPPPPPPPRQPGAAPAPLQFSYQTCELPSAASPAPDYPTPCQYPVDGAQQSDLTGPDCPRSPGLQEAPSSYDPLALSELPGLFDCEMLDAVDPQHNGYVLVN
T3 sequence (P57059 whole entry): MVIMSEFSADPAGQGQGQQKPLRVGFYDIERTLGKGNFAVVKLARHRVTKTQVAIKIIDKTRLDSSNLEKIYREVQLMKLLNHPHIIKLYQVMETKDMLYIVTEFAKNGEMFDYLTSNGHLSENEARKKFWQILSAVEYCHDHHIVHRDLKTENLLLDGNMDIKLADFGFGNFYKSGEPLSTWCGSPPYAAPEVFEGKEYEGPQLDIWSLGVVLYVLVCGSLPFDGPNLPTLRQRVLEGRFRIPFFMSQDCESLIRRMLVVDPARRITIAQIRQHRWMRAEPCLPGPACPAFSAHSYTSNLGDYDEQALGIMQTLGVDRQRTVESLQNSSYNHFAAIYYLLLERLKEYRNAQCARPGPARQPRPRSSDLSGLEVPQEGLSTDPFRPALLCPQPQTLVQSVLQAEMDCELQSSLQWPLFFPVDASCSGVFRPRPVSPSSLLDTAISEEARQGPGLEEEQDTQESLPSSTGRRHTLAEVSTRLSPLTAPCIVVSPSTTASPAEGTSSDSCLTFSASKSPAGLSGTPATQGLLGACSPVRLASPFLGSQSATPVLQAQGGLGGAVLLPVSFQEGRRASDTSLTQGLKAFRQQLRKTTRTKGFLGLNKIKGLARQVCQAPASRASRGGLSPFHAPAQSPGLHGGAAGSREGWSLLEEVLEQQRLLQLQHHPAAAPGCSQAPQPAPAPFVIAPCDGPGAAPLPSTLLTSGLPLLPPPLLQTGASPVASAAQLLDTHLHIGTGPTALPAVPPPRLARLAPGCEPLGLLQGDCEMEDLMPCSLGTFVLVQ
T1 sequence (Q9Y2K2 whole entry): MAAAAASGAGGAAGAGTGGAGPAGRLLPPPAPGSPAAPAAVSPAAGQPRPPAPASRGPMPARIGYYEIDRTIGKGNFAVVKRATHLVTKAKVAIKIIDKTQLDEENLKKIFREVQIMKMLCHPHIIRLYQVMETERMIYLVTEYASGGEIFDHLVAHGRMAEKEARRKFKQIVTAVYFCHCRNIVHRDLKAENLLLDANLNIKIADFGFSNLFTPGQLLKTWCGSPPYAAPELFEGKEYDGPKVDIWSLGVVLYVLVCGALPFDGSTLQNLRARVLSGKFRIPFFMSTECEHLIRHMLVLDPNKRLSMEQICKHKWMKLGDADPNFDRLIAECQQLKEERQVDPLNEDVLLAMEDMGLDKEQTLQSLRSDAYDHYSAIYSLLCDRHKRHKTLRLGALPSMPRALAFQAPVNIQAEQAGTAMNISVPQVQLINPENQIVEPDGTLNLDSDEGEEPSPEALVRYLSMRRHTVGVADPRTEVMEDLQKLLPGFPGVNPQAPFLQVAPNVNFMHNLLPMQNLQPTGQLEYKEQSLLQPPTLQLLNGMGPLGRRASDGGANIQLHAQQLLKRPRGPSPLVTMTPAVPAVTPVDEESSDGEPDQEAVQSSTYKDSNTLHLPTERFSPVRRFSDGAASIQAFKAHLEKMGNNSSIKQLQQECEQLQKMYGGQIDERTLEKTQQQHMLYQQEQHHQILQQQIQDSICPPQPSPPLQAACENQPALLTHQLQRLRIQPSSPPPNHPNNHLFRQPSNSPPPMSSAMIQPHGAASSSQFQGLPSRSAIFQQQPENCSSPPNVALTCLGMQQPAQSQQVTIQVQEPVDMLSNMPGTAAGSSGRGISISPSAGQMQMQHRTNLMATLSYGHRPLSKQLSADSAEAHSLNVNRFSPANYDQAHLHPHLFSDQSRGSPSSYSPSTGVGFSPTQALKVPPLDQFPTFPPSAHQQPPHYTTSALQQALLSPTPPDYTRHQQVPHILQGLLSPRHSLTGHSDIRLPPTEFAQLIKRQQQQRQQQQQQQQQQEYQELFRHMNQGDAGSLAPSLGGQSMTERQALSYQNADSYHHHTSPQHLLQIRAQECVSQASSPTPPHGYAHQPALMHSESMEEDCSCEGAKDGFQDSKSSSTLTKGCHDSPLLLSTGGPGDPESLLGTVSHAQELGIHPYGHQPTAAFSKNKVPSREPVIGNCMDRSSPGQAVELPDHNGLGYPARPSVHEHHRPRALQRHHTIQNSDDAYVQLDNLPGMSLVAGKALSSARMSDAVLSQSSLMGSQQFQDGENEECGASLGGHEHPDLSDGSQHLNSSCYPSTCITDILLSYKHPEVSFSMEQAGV

Row | IC50 (SIK3) [nM] | IC50 (SIK2) [nM] | IC50 (SIK1) [nM] | EC50 [1] [nM] | SMILES | bone formation and bone mass [2]
1 | 10 to 100 | 10 to 100 | > 500 |  | COc1cc(-c2cnn3cc(OCCN4CCOCC4)cnc23)cc2c1C(=O)N(CC(F)(F)F)CC2 [Cpd 4, 8-methoxy-6-[6-(2-morpholinoethoxy)pyrazolo[1,5-a]pyrimidin-3-yl]-2-(2,2,2-trifluoroethyl)-3,4-dihydroisoquinolin-1-one] | 
2 | 10 to 100 | 10 to 100 | > 500 |  | COc1cc(-c2cnc3cc(OCCN4CCOCC4)cnn23)cc2c1C(=O)N(CC(F)(F)F)CC2 [Cpd 5, 8-methoxy-6-[7-(2-morpholinoethoxy)imidazo[1,2-b]pyridazin-3-yl]-2-(2,2,2-trifluoroethyl)-3,4-dihydroisoquinolin-1-one] | 
3 | 10 to 100 | 10 to 100 | > 500 | 100 to 1000 | COc1cc(-c2cnn3cc(OC(C)(C)CN4CC5(COC5)C4)ccc23)cc(OC(F)F)c1C(=O)N[C@@H]1C[C@@H]1F [Cpd 6, 2-(difluoromethoxy)-4-[6-[1,1-dimethyl-2-(2-oxa-6-azaspiro[3.3]heptan-6-yl)ethoxy]pyrazolo[1,5-a]pyridin-3-yl]-N-[(2S)-2-fluorocyclopropyl]-6-methoxy-benzamide] | 
4 |  |  |  |  | COc1ccc(N2C(=O)N(c3c(C)cccc3Cl)Cc3cnc(Nc4ccc(C5CCN(C)CC5)cc4OC)nc32)nc1 [YKL-05-099] | increased bone formation and bone mass
